Tests used:
Type in all cases: biochemical
[1] = target: T1, JAK1 (Homo sapiens, UniProt P23458); test: JAK kinase assay (HTRF, phosphorylation of synthetic peptide), JAK1; conditions: catalytic domain, ATP at Km (7 μM); read-out: JAK1 kinase inhibitory activity (EC50)
T1 construct: JAK1 (aa 850-1154) and TYK2 (aa 871-1187) are expressed with an N-terminally fused GST-tag; GST (N); purchased Carna Biosciences, Inc; host or cells: baculovirus expression system
Summary of the method: (§1)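 Catalytic-domain human JAK1 (GST-tagged, aa 850-1154) or His-tagged JAK2, baculovirus-expressed, phosphorylated 1 µM biotinylated TK peptide at Km ATP (JAK1 7 µM, 10 mM MgCl2, 50 nM SEB; JAK2 4 µM, 5 mM MgCl2) in pH 7.0 Hepes, 20-30 min RT. EDTA stop; overnight streptavidin-XL665/cryptate HTRF read.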

[2] = target: T2, JAK3 (Homo sapiens, UniProt P52333); test: JAK kinase assay (HTRF, phosphorylation of synthetic peptide), JAK3; conditions: catalytic domain, ATP at Km (2 μM); read-out: JAK3 kinase inhibitory activity (EC50)
T2 construct: All four purified enzymes contain only the catalytic domain; His (N); purchased Carna Biosciences, Inc; host or cells: baculovirus expression system

[3] = target: T3, JAK2 (Homo sapiens, UniProt O60674); test: JAK kinase assay (HTRF, phosphorylation of synthetic peptide), JAK2; conditions: catalytic domain, ATP at Km (4 μM); read-out: JAK2 kinase inhibitory activity (EC50)
T3 construct: All four purified enzymes contain only the catalytic domain; His (N); purchased Carna Biosciences, Inc; host or cells: baculovirus expression system
Summary of the method: as §1

[4] = target: T4, TYK2 (Homo sapiens, UniProt P29597); test: JAK kinase assay (HTRF, phosphorylation of synthetic peptide), TYK2; conditions: catalytic domain, ATP at Km (13 μM); read-out: TYK2 kinase inhibitory activity (EC50)
T4 construct: JAK1 (aa 850-1154) and TYK2 (aa 871-1187) are expressed with an N-terminally fused GST-tag; GST (N); purchased Carna Biosciences, Inc; host or cells: baculovirus expression system
T4 sequence (P29597 871-1187): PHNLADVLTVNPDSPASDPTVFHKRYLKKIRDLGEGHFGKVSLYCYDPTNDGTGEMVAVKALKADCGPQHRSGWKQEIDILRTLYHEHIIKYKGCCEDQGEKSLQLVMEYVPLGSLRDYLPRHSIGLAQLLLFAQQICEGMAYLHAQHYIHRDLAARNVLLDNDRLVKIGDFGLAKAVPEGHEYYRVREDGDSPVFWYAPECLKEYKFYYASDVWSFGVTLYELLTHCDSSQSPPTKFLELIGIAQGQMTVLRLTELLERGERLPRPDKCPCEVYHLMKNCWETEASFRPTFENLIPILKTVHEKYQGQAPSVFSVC
Summary of the method: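 1 µM biotinylated TK peptide at Km ATP in pH 7.0 Hepes, 20-30 min RT. EDTA stop; overnight streptavidin-XL665/cryptate HTRF read.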

T1 sequence (P23458 850-1154): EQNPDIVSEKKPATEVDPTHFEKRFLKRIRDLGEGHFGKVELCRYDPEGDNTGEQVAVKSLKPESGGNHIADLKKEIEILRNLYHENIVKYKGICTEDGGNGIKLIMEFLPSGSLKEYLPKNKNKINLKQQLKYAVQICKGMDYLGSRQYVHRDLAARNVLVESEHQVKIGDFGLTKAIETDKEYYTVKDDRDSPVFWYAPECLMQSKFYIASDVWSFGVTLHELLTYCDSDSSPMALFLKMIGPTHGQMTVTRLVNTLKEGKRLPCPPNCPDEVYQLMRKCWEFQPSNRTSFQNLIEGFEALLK
T2 sequence (P52333 822-1111 limits assumed): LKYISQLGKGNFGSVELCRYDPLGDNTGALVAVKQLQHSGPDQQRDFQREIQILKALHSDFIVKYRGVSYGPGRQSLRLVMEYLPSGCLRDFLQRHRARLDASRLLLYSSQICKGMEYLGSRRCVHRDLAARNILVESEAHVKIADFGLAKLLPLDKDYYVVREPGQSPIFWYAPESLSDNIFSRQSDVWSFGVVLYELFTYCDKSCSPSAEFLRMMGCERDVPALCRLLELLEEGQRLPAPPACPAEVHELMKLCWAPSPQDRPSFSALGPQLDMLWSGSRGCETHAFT
T3 sequence (O60674 849-1124 limits assumed): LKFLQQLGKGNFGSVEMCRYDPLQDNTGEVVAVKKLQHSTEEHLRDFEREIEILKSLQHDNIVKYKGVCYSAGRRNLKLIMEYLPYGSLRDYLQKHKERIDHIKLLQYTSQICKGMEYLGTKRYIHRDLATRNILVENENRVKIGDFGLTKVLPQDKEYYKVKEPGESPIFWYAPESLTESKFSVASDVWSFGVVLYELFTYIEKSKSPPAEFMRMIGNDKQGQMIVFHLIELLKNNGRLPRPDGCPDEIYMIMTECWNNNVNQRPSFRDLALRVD

SMILES	EC50 [1] [nM]	EC50 [2] [nM]	EC50 [3] [nM]	EC50 [4] [nM]
CC(C)CCN(C)S(=O)(=O)N1CCN(c2ncnc3[nH]ccc23)CC12CC2 [Example 27, 7-(7H-Pyrrolo[2,3-d]pyrimidin-4-yl)-4,7-diaza-spiro[2.5]octane-4-sulfonic acid methyl-(3-methyl-butyl)-amide]	< 100	< 100	< 100	100 to 500
CN(CC1CCNCC1)S(=O)(=O)N1CCN(c2ncnc3[nH]ccc23)CC12CC2 [Int 26]	< 100	100 to 500	< 100	> 500
CN(CC1CCN(C(=O)CCO)CC1)S(=O)(=O)N1CCN(c2ncnc3[nH]ccc23)CC12CC2 [Example 151, N-[[1-(3-hydroxypropanoyl)-4-piperidyl]methyl]-N-methyl-5-(7H-pyrrolo[2,3-d]pyrimidin-4-yl)-5,8-diazaspiro[2.5]octane-8-sulfonamide]	< 100	100 to 500	< 100	100 to 500
CN(CC1CCC(C(C)(C)C)CC1)S(=O)(=O)N1CCN(c2ncnc3[nH]ccc23)CC12CC2 (stereo not drawn) [Example 84, N-[(4-tert-butylcyclohexyl)methyl]-N-methyl-5-(7H-pyrrolo[2,3-d]pyrimidin-4-yl)-5,8-diazaspiro[2.5]octane-8-sulfonamide]	> 500	> 500	> 500	> 500
CC(C)(C)OC(=O)N(CCCS(C)(=O)=O)S(=O)(=O)N1CCN(c2ncnc3[nH]ccc23)CC12CC2 [Example 196, tert-butyl N-(3-methylsulfonylpropyl)-N-[[5-(7H-pyrrolo[2,3-d]pyrimidin-4-yl)-5,8-diazaspiro[2.5]octan-8-yl]sulfonyl]carbamate]	100 to 500	> 500	100 to 500	> 500
CN(Cc1cccc(S(N)(=O)=O)c1)S(=O)(=O)N1CCN(c2ncnc3[nH]ccc23)CC12CC2 [Example 90, N-methyl-5-(7H-pyrrolo[2,3-d]pyrimidin-4-yl)-N-[(3-sulfamoylphenyl)methyl]-5,8-diazaspiro[2.5]octane-8-sulfonamide]	< 100	< 100	< 100	< 100
CN(C[C@@H]1CC(F)(F)CN1C=O)S(=O)(=O)N1CCN(c2ncnc3[nH]ccc23)CC12CC2 [Example 157, N-[[(2S)-4,4-difluoro-1-formyl-pyrrolidin-2-yl]methyl]-N-methyl-5-(7H-pyrrolo[2,3-d]pyrimidin-4-yl)-5,8-diazaspiro[2.5]octane-8-sulfonamide]	< 100	< 100	< 100	< 100
N#CCCCN(C1CCC1)S(=O)(=O)N1CCN(c2ncnc3[nH]ccc23)CC12CC2 [Example 102, N-(3-cyanopropyl)-N-cyclobutyl-5-(7H-pyrrolo[2,3-d]pyrimidin-4-yl)-5,8-diazaspiro[2.5]octane-8-sulfonamide]	< 100	< 100	< 100	100 to 500
N#CCN(CCc1ccccc1)S(=O)(=O)N1CCN(c2ncnc3[nH]ccc23)CC12CC2 [Example 19, 7-(7H-Pyrrolo[2,3-d]pyrimidin-4-yl)-4,7-diaza-spiro[2.5]octane-4-sulfonic acid cyanomethyl-phenethyl-amide]	< 100	< 100	< 100	< 100
COc1ccc(CNS(=O)(=O)N2CCN(c3ncnc4[nH]ccc34)CC23CC3)cc1 [Example 195, N-[(4-methoxyphenyl)methyl]-5-(7H-pyrrolo[2,3-d]pyrimidin-4-yl)-5,8-diazaspiro[2.5]octane-8-sulfonamide]	100 to 500	> 500	100 to 500	> 500
CN(CCC1CCS(=O)(=O)C1)S(=O)(=O)N1CCN(c2ncnc3[nH]ccc23)CC12CC2 (stereo not drawn) [Example 75, N-[2-(1,1-dioxothiolan-3-yl)ethyl]-N-methyl-5-(7H-pyrrolo[2,3-d]pyrimidin-4-yl)-5,8-diazaspiro[2.5]octane-8-sulfonamide]	< 100	< 100	< 100	100 to 500
CN(CC1CC1)S(=O)(=O)N1CCN(c2ncnc3[nH]ccc23)CC12CC2 [Example 59, N-(cyclopropylmethyl)-N-methyl-5-(7H-pyrrolo[2,3-d]pyrimidin-4-yl)-5,8-diazaspiro[2.5]octane-8-sulfonamide]	< 100	< 100	< 100	< 100
CN(CCC1CCCCC1)S(=O)(=O)N1CCN(c2ncnc3[nH]ccc23)CC12CC2 [Example 11, 7-(7H-Pyrrolo[2,3-d]pyrimidin-4-yl)-4,7-diaza-spiro[2.5]octane-4-sulfonic acid (2-cyclohexyl-ethyl)-methyl-amide]	< 100	100 to 500	< 100	> 500
O=S(=O)(N(CCO)CCO)N1CCN(c2ncnc3[nH]ccc23)CC12CC2 [Example 54, 7-(7H-Pyrrolo[2,3-d]pyrimidin-4-yl)-4,7-diaza-spiro[2.5]octane-4-sulfonic acid bis-(2-hydroxy-ethyl)-amide]	< 100	< 100	< 100	100 to 500
CN(Cc1cccc(F)c1)S(=O)(=O)N1CCN(c2ncnc3[nH]ccc23)CC12CC2 [Example 78, N-[(3-fluorophenyl)methyl]-N-methyl-5-(7H-pyrrolo[2,3-d]pyrimidin-4-yl)-5,8-diazaspiro[2.5]octane-8-sulfonamide]	< 100	< 100	< 100	100 to 500
O=S(=O)(N1CCN(c2ncnc3[nH]ccc23)CC12CC2)n1ccnc1 [Int 15]	100 to 500	> 500	< 100	> 500
O=S(=O)(N(CCn1ccnc1)C1CCC1)N1CCN(c2ncnc3[nH]ccc23)CC12CC2 [Example 104, N-cyclobutyl-N-(2-imidazol-1-ylethyl)-5-(7H-pyrrolo[2,3-d]pyrimidin-4-yl)-5,8-diazaspiro[2.5]octane-8-sulfonamide]	< 100	100 to 500	< 100	100 to 500
O=S(=O)(N1CCCCC1)N1CCN(c2ncnc3[nH]ccc23)CC12CC2 [Example 38, 4-[4-(Piperidine-1-sulfonyl)-4,7-diaza-spiro[2.5]oct-7-yl]-7H-pyrrolo[2,3-d]pyrimidine]	100 to 500	100 to 500	< 100	100 to 500
N#CCCN(CC#N)S(=O)(=O)N1CCN(c2ncnc3[nH]ccc23)CC12CC2 [Example 171, N-(2-cyanoethyl)-N-(cyanomethyl)-5-(7H-pyrrolo[2,3-d]pyrimidin-4-yl)-5,8-diazaspiro[2.5]octane-8-sulfonamide]	< 100	< 100	< 100	< 100
CN(Cc1cccc(C#N)c1)S(=O)(=O)N1CCN(c2ncnc3[nH]ccc23)CC12CC2 [Example 13, 7-(7H-Pyrrolo[2,3-d]pyrimidin-4-yl)-4,7-diaza-spiro[2.5]octane-4-sulfonic acid (3-cyano-benzyl)-methyl-amide]	< 100	< 100	< 100	100 to 500
CN(C[C@H]1CCCN1C(=O)CC#N)S(=O)(=O)N1CCN(c2ncnc3[nH]ccc23)CC12CC2 [Example 189, N-[[(2R)-1-(2-cyanoacetyl)pyrrolidin-2-yl]methyl]-N-methyl-5-(7H-pyrrolo[2,3-d]pyrimidin-4-yl)-5,8-diazaspiro[2.5]octane-8-sulfonamide]	< 100	< 100	< 100	100 to 500
CN(CCOc1cccc(C#N)c1)S(=O)(=O)N1CCN(c2ncnc3[nH]ccc23)CC12CC2 [Example 71, N-[2-(3-cyanophenoxy)ethyl]-N-methyl-5-(7H-pyrrolo[2,3-d]pyrimidin-4-yl)-5,8-diazaspiro[2.5]octane-8-sulfonamide]	< 100	100 to 500	< 100	> 500
O=S(=O)(N(Cc1ccccc1)Cc1ccccc1)N1CCN(c2ncnc3[nH]ccc23)CC12CC2 [Example 146, N,N-dibenzyl-5-(7H-pyrrolo[2,3-d]pyrimidin-4-yl)-5,8-diazaspiro[2.5]octane-8-sulfonamide]	100 to 500	> 500	100 to 500	> 500
CCN(C(C)C)S(=O)(=O)N1CCN(c2ncnc3[nH]ccc23)CC12CC2 [Example 95, N-ethyl-N-isopropyl-5-(7H-pyrrolo[2,3-d]pyrimidin-4-yl)-5,8-diazaspiro[2.5]octane-8-sulfonamide]	100 to 500	100 to 500	< 100	> 500
